Data as given in the supplement of paper PMC10307832.

Experiments:
Test in all cases: relative viability (nuclei count vs DMSO), 5 days (fraction); higher = more cells survive
Kobe2602 = compound: C1=CC(=CC=C1NC(=S)NNC2=C(C=C(C=C2[N+](=O)[O-])C(F)(F)F)[N+](=O)[O-])F [Kobe2602]
How it was run: (§1)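 Acceptance criteria were a control CV below 25% and at least one doubling per plate. Lung cancer cell lines in 1536-well plates got five library-drug doses (not always all listed) √10 apart by pinning and were left 5 days with no medium change. Viability divides treated-well nuclei by vehicle-well nuclei and is the median across plates. Nuclei were counted by MetaXpress from 4× Hoechst images.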

Cabozantinib = compound: COc1cc2nccc(Oc3ccc(NC(=O)C4(C(=O)Nc5ccc(F)cc5)CC4)cc3)c2cc1OC [Cabozantinib]
How it was run: as §1

Zosuquidar = compound: O[C@@H](COc1cccc2ncccc12)CN1CCN([C@@H]2c3ccccc3[C@@H]3[C@H](c4ccccc42)C3(F)F)CC1 [Zosuquidar]
How it was run: as §1

[1] = compound: COc1cc2nccc(Oc3ccc(NC(=O)C4(C(=O)Nc5ccc(F)cc5)CC4)cc3)c2cc1OC [Cabozantinib] + O=C(CCCCCCC(=O)Nc1ccccc1)NO [Vorinostat] (partner 1 µM)
How it was run: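 Relative viability was taken as the ratio of nuclei in treated wells to nuclei in vehicle wells. Lung cancer cell lines in 1536-well plates received compounds by pin tool one day after seeding, either one drug alone or a fixed anchor-drug dose plus five library-drug doses (not always all listed) in √10 steps. Nuclei were counted on 4× images after 5 days of treatment, and values are medians of duplicate plates.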

Question: Which results are given for UMC-11?
Answer: relative viability (Kobe2602; 0.2 µM): 1.05; relative viability (Kobe2602; 0.6325 µM): 1.01; relative viability (Kobe2602; 2 µM): 1.06; relative viability (Kobe2602; 6.325 µM): 0.975; relative viability (Kobe2602; 20 µM): 1.05; relative viability (Cabozantinib; 0.02 µM): 0.989; relative viability (Cabozantinib; 0.06325 µM): 1.11; relative viability (Cabozantinib; 0.2 µM): 0.963; relative viability (Cabozantinib; 0.6325 µM): 1.04; relative viability (Cabozantinib; 2 µM): 1; relative viability (Zosuquidar; 0.01 µM): 0.957; relative viability (Zosuquidar; 0.03162 µM): 1.04; relative viability (Zosuquidar; 0.1 µM): 0.908; relative viability (Zosuquidar; 0.3162 µM): 1.11; relative viability (Zosuquidar; 1 µM): 0.96; relative viability ([1]; first compound 0.02 µM): 0.302; relative viability ([1]; first compound 0.06325 µM): 0.336; relative viability ([1]; first compound 0.2 µM): 0.37; relative viability ([1]; first compound 0.6325 µM): 0.323; relative viability ([1]; first compound 2 µM): 0.332
